≈ marks a conversion by molar mass, not a printed value.
Columns and labels:
Type in all cases: functional, cell-based
HCT-8 = experiment: Cytotoxicity against human HCT8 […] by MTT assay
A2780 = experiment: Cytotoxicity against human A2780 […] by MTT assay
A549 = experiment: Cytotoxicity against human A549 […] by MTT assay
BGC-823 = experiment: Cytotoxicity against human BGC823 […] by MTT assay

SMILES	IC50 (HCT-8)	IC50 (A2780)	IC50 (A549)	IC50 (BGC-823)
CC(C)=CCc1c(O)cc2c(c1-c1cc3ccc(O)cc3o1)C=CC(C)(C)O2 [CATHAFURAN C]	7.33 µg/mL (≈ 19.5 µM)	7.61 µg/mL (≈ 20.2 µM)	–	–
O=c1[nH]cc(F)c(=O)[nH]1 [FLUOROURACIL]	0.2 µg/mL (≈ 1.54 µM)	0.2 µg/mL (≈ 1.54 µM)	0.2 µg/mL (≈ 1.54 µM)	0.2 µg/mL (≈ 1.54 µM)
CC(C)=CCc1c(O)cc(O)cc1-c1cc2ccc(O)c(CC=C(C)C)c2o1 [CATHAFURAN B]	6.27 µg/mL (≈ 16.6 µM)	6.27 µg/mL (≈ 16.6 µM)	6.27 µg/mL (≈ 16.6 µM)	6.27 µg/mL (≈ 16.6 µM)
